Where two headings read alike, the source gives them in different places. Marks after values point to notes of the source that are not given here.
How the values were obtained:
[1] = molecular target: T1, GRPR (Homo sapiens, UniProt P30550); assay: GRPR binding affinity and kinetics on PC-3 cells (LigandTracer); details: 1-3 nM radioligand
T1 construct: host or cells: PC-3 human prostate adenocarcinoma cells
Method: For evaluation of the receptor affinity and binding kinetics, PC-3 cells were seeded in 100 mm Nunc™ Petri dishes (Thermo Fisher, Waltham, MA, USA). A LigandTracer Yellow device (Ridgeview Instruments AB, Uppsala, Sweden) was used to measure the radiation from the Petri dish. Background with RPMI-1640 medium was measured for 30 min, after which 1 nM of radioligand was added and measured for 2 h. An additional concentration (3 nM) was measured for another 2 h, thereafter the medium was aspirated, replaced with fresh medium, and left running overnight to measure the dissociation rate. Data was fitted with the TracerDrawer software (Ridgeview Instruments AB, Uppsala, Sweden).

[2] = in vivo; design: species or system BALB/c nu/nu female mice; details: female, BALB/c nu/nu, mouse, iv, total radioactivity
Text: (§1) Animal experiments were planned and performed in accordance with national legislation on protection of laboratory animals, and protocols were approved by the Ethics Committee for Animal Research in Uppsala, Sweden (5.8.18–00473/2021). BALB/c nu/nu female mice were xenografted by subcutaneous injection of PC-3 cells on the hind leg (7 × 10^6 cells/mouse). At the date of the experiment, approximately 6 weeks after implantation, tumour sizes reached 0.11 ± 0.05 g. Groups of four mice were used for each time point. In the first group, mice were iv injected with test radiopeptide (30 kBq in 100 µL PBS supplemented with 1% bovine serum albumin (BSA), corresponding to 40 pmol) and euthanized at 4 h pi. Tumors and relevant organs were collected, weighted and sample radioactivity was measured using the gamma counter. In the case of [^111In]In-AU-SAR-M1 two additional mice groups underwent the same procedure but were euthanized either at 24 h pi, or at 4 h pi following radioligand co-injection with excess (5 nmol) NOTA-PEG2-RM26 to determine the in vivo GRPR-specificity. For statistical analysis Two-Way Anova with Tuckey’s post hock analysis was employed, using GraphPad Prism 7 for Windows® (GraphPad Software, Boston, Massachusetts USA).

[3] = system: PC-3 xenografts; assay: in vivo; design: species or system BALB/c nu/nu female mice; details: mouse
Text: as §1

[4] = 1:2 model for M1 and M3, 1:1 model for M2, read-out: KD1
[5] = 40 pmol, GI (gastrointestinal tract) uptake
[6] = 40 pmol, Small intestines uptake
[7] = 40 pmol, Tumor-to-kidneys ratio
[8] = 40 pmol, Tumor-to-pancreas ratio
[9] = female, BALB/c nu/nu, iv, 40 pmol, 4 h

T1 sequence (P30550 whole entry): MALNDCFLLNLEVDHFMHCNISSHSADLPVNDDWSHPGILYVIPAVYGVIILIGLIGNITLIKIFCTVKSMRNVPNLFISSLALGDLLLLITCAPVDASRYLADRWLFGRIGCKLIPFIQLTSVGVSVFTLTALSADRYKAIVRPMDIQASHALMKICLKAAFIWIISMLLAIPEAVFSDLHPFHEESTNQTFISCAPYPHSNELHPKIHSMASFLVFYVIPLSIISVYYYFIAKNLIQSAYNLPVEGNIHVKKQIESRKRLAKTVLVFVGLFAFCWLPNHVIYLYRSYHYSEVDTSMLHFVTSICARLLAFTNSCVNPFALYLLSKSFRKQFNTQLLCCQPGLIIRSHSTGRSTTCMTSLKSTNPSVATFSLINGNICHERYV

CCNC(=O)[C@H](CC(C)C)NC(=O)[C@H](Cc1c[nH]cn1)NC(=O)CN(C)C(=O)[C@@H](NC(=O)[C@H](C)NC(=O)[C@H](Cc1c[nH]c2ccccc12)NC(=O)[C@H](CCC(N)=O)NC(=O)[C@@H](Cc1ccccc1)NC(=O)COCC(=O)Nc1ccc(CNC(=O)[C@H](CCCNC(=N)N)NC(=O)CCC(C(=O)O)N2CCN(CC(=O)O)CCN(CC(=O)O)CCN(CC(=O)O)CC2)cc1)C(C)C (stereo partly shown) [[^111In]In-AU-SAR-M2, [^111In]In-[DOTAGA-Arg]AU-SAR-M1, metal not drawn] gave a Kd [1, 4] of 0.031 nM, a tissue uptake at 4 h ([2]; 40 pmol, Blood uptake) of 0.08 ± 0.01 %ID/g and a tissue uptake at 4 h ([2]; 40 pmol, Bone uptake) of 0.23 ± 0.04 %ID/g. For the same molecule, the tissue uptake dose at 4 h ([2]; 40 pmol, Carcass uptake) was 4 ± 2 %ID, the tissue uptake dose at 4 h [2, 5] was 2.9 ± 0.3 %ID and the tissue uptake at 4 h ([2]; 40 pmol, Kidneys uptake) was 3.4 ± 0.4 %ID/g. The tissue uptake at 4 h ([2]; 40 pmol, Liver uptake) was 0.3 ± 0.1 %ID/g, the tissue uptake at 4 h ([2]; 40 pmol, Lungs uptake) was 0.2 ± 0.1 %ID/g and the tissue uptake at 4 h ([2]; 40 pmol, Muscle uptake) was 0.09 ± 0.04 %ID/g. The tissue uptake at 4 h ([2]; 40 pmol, Pancreas uptake) was 9 ± 2 %ID/g, the tissue uptake at 4 h [2, 6] was 2.4 ± 0.9 %ID/g and the tissue uptake at 4 h ([2]; 40 pmol, Spleen uptake) was 0.3 ± 0.1 %ID/g. It also gave a tissue uptake at 4 h ([2]; 40 pmol, Tumor uptake) of 12.7 ± 0.8 %ID/g, a tissue to tissue ratio at 4 h ([2]; 40 pmol, Tumor-to-blood ratio) of 159 ± 32 and a tissue to tissue ratio at 4 h ([2]; 40 pmol, Tumor-to-bone ratio) of 58 ± 12. For the same molecule, the tissue to tissue ratio at 4 h [2, 7] was 3.8 ± 0.6, the tissue to tissue ratio at 4 h ([2]; 40 pmol, Tumor-to-liver ratio) was 47 ± 14 and the tissue to tissue ratio at 4 h ([2]; 40 pmol, Tumor-to-lungs ratio) was 63 ± 22. It also gave a tissue to tissue ratio at 4 h ([2]; 40 pmol, Tumor-to-muscle ratio) of 161 ± 74, a tissue to tissue ratio at 4 h [2, 8] of 1.4 ± 0.3 and a tissue to tissue ratio at 4 h ([2]; 40 pmol, Tumor-to-spleen ratio) of 46 ± 11. For the same molecule, the Tumor-to-small intestines ratio [3] was 6 ± 2.
With CCNC(=O)[C@H](CC(C)C)NC(=O)[C@H](Cc1c[nH]cn1)NC(=O)CN(C)C(=O)[C@@H](NC(=O)[C@H](C)NC(=O)[C@H](Cc1c[nH]c2ccccc12)NC(=O)[C@H](CCC(N)=O)NC(=O)[C@@H](Cc1ccccc1)NC(=O)COCC(=O)Nc1ccc(CNC(=O)CCC(C(=O)O)N2CCN(CC(=O)O)CCN(CC(=O)O)CCN(CC(=O)O)CC2)cc1)C(C)C (stereo partly drawn) [[^111In]In-AU-SAR-M1, [^111In]In-DOTAGA-AMA-DIG-DPhe-Gln-Trp-Ala-Val-Sar-His-Leu-NHEt, metal not drawn] the Kd [1, 4] was 0.39 nM, the Kd ([1]; 1:2 model, read-out: KD2) was 1.1 nM and the tissue uptake at 4 h ([2]; 40 pmol, Blood uptake) was 0.08 ± 0.03 %ID/g. For the same molecule, the tissue uptake at 24 h ([2]; 40 pmol, Blood uptake) was 0.01 ± 0.001 %ID/g, the tissue uptake at 4 h ([2]; 40 pmol, Bone uptake) was 0.3 ± 0.3 %ID/g and the tissue uptake at 24 h ([2]; 40 pmol, Bone uptake) was 0.04 ± 0.02 %ID/g. The tissue uptake dose at 4 h ([2]; 40 pmol, Carcass uptake) was 4 ± 2 %ID, the tissue uptake dose at 24 h ([2]; 40 pmol, Carcass uptake) was 0.48 ± 0.07 %ID and the tissue uptake dose at 4 h [2, 5] was 2 ± 0.9 %ID. For the same molecule, the tissue uptake dose at 24 h [2, 5] was 0.62 ± 0.49 %ID, the tissue uptake at 4 h ([2]; 40 pmol, Kidneys uptake) was 3.1 ± 0.3 %ID/g and the tissue uptake at 24 h ([2]; 40 pmol, Kidneys uptake) was 2.38 ± 0.14 %ID/g. It also gave a tissue uptake at 4 h ([2]; 40 pmol, Liver uptake) of 0.2 ± 0.1 %ID/g, a tissue uptake at 24 h ([2]; 40 pmol, Liver uptake) of 0.09 ± 0.01 %ID/g and a tissue uptake at 4 h ([2]; 40 pmol, Lungs uptake) of 0.2 ± 0.2 %ID/g. For the same molecule, the tissue uptake at 24 h ([2]; 40 pmol, Lungs uptake) was 0.04 ± 0.003 %ID/g, the tissue uptake at 4 h ([2]; 40 pmol, Muscle uptake) was 0.09 ± 0.06 %ID/g and the tissue uptake at 24 h ([2]; 40 pmol, Muscle uptake) was 0.02 ± 0.01 %ID/g. The tissue uptake at 4 h ([2]; 40 pmol, Pancreas uptake) was 2 ± 1 %ID/g, the tissue uptake at 24 h ([2]; 40 pmol, Pancreas uptake) was 0.12 ± 0.03 %ID/g and the tissue uptake at 4 h [2, 6] was 0.8 ± 0.5 %ID/g. The tissue uptake at 24 h [2, 6] was 0.07 ± 0.03 %ID/g, the tissue uptake at 4 h ([2]; 40 pmol, Spleen uptake) was 0.12 ± 0.05 %ID/g and the tissue uptake at 24 h ([2]; 40 pmol, Spleen uptake) was 0.1 ± 0.04 %ID/g. The tissue uptake at 4 h ([2]; 40 pmol, Tumor uptake) was 11 ± 1 %ID/g, the tissue uptake at 24 h ([2]; 40 pmol, Tumor uptake) was 6.3 ± 0.8 %ID/g and the tissue to tissue ratio at 4 h ([2]; 40 pmol, Tumor-to-blood ratio) was 160. It also gave a tissue to tissue ratio at 24 h ([2]; 40 pmol, Tumor-to-blood ratio) of over 550, a tissue to tissue ratio ([2]; 40 pmol, Tumor-to-bone ratio) of over 150 and a tissue to tissue ratio at 4 h ([2]; 40 pmol, Tumor-to-bone ratio) of 74 ± 68. For the same molecule, the tissue to tissue ratio at 24 h ([2]; 40 pmol, Tumor-to-bone ratio) was 173 ± 72, the tissue to tissue ratio at 4 h [2, 7] was 3.6 ± 0.2 and the tissue to tissue ratio at 24 h [2, 7] was 2.7 ± 0.2. The tissue to tissue ratio at 4 h ([2]; 40 pmol, Tumor-to-liver ratio) was 65 ± 22, the tissue to tissue ratio at 24 h ([2]; 40 pmol, Tumor-to-liver ratio) was 67 ± 6 and the tissue to tissue ratio at 4 h ([2]; 40 pmol, Tumor-to-lungs ratio) was 68 ± 39. For the same molecule, the tissue to tissue ratio at 24 h ([2]; 40 pmol, Tumor-to-lungs ratio) was 174 ± 29, the tissue to tissue ratio at 4 h ([2]; 40 pmol, Tumor-to-muscle ratio) was 167 ± 102 and the tissue to tissue ratio at 24 h ([2]; 40 pmol, Tumor-to-muscle ratio) was 375 ± 95. For the same molecule, the tissue to tissue ratio at 4 h [2, 8] was 9 ± 11, the tissue to tissue ratio at 24 h [2, 8] was 57 ± 18 and the tissue to tissue ratio at 4 h ([2]; 40 pmol, Tumor-to-spleen ratio) was 61 ± 19. For the same molecule, the tissue to tissue ratio at 24 h ([2]; 40 pmol, Tumor-to-spleen ratio) was 70 ± 20, the tissue uptake dose at 4 h ([2]; Carcass uptake) was 1.1 ± 0.6 %ID and the tissue uptake dose at 4 h ([2]; GI (gastrointestinal tract) uptake) was 1.5 ± 0.3 %ID. The Tumor-to-blood ratio [3, 9] was 141 ± 61^a, the Tumor-to-pancreas ratio [3, 9] was 8 ± 7 and the Tumor-to-blood ratio ([3]; female, BALB/c nu/nu, iv, 40 pmol, 24 h) was 557 ± 58^ a. For the same molecule, the “Decrease of tumor uptake from 4 h to 24 h pi” value [3] was about 40%, the “Increase of tumor-to-muscle ratio from 4 h to 24 h pi” value [3] was “about 1.8 fold” and the “Initial pancreas uptake remaining at 24 h pi” value [3] was 5%. The “Tumor uptake at 24 h pi as % of the 4 h pi value” [3] was 57%.
CCNC(=O)[C@H](CC(C)C)NC(=O)[C@H](Cc1c[nH]cn1)NC(=O)CN(C)C(=O)[C@@H](NC(=O)[C@H](C)NC(=O)[C@H](Cc1c[nH]c2ccccc12)NC(=O)[C@H](CCC(N)=O)NC(=O)[C@@H](Cc1ccccc1)NC(=O)COCC(=O)Nc1ccc(CNC(=O)[C@@H](CCCNC(=N)N)NC(=O)CCC(C(=O)O)N2CCN(CC(=O)O)CCN(CC(=O)O)CCN(CC(=O)O)CC2)cc1)C(C)C (stereo partly shown) [[^111In]In-AU-SAR-M3, [^111In]In-[DOTAGA-DArg]AU-SAR-M1, metal not drawn] showed a Kd [1, 4] of 0.3 nM, a Kd ([1]; read-out: KD2, 1:2 model) of 1.1 nM and a tissue uptake at 4 h ([2]; 40 pmol, Blood uptake) of 0.05 ± 0.01 %ID/g. For the same molecule, the tissue uptake at 4 h ([2]; 40 pmol, Bone uptake) was 0.17 ± 0.04 %ID/g, the tissue uptake dose at 4 h ([2]; 40 pmol, Carcass uptake) was 2.1 ± 0.2 %ID and the tissue uptake dose at 4 h [2, 5] was 0.7 ± 0.2 %ID. The tissue uptake at 4 h ([2]; 40 pmol, Kidneys uptake) was 5 ± 0.5 %ID/g, the tissue uptake at 4 h ([2]; 40 pmol, Liver uptake) was 0.25 ± 0.02 %ID/g and the tissue uptake at 4 h ([2]; 40 pmol, Lungs uptake) was 0.15 ± 0.03 %ID/g. It also gave a tissue uptake at 4 h ([2]; 40 pmol, Muscle uptake) of 0.07 ± 0.03 %ID/g, a tissue uptake at 4 h ([2]; 40 pmol, Pancreas uptake) of 0.5 ± 0.1 %ID/g and a tissue uptake at 4 h [2, 6] of 0.2 ± 0.2 %ID/g. The tissue uptake at 4 h ([2]; 40 pmol, Spleen uptake) was 0.18 ± 0.03 %ID/g, the tissue uptake at 4 h ([2]; 40 pmol, Tumor uptake) was 6.7 ± 0.3 %ID/g and the tissue to tissue ratio at 4 h ([2]; 40 pmol, Tumor-to-blood ratio) was 147 ± 43. It also gave a tissue to tissue ratio at 4 h ([2]; 40 pmol, Tumor-to-bone ratio) of 41 ± 9, a tissue to tissue ratio at 4 h [2, 7] of 1.4 ± 0.1 and a tissue to tissue ratio at 4 h ([2]; 40 pmol, Tumor-to-liver ratio) of 27 ± 3. For the same molecule, the tissue to tissue ratio at 4 h ([2]; 40 pmol, Tumor-to-lungs ratio) was 47 ± 14, the tissue to tissue ratio at 4 h ([2]; 40 pmol, Tumor-to-muscle ratio) was 107 ± 63 and the tissue to tissue ratio at 4 h [2, 8] was 14 ± 3. For the same molecule, the tissue to tissue ratio at 4 h ([2]; 40 pmol, Tumor-to-spleen ratio) was 39 ± 8 and the Tumor-to-small intestines ratio [3] was 25 ± 7.

From PMC10873254, “Preclinical evaluation of new GRPR-antagonists with improved metabolic stability for radiotheranostic use in oncology” (EJNMMI Radiopharmacy and Chemistry, 2024)
